Structures can show the parent of a compound that is named as a salt.

One test concerns the target JAK2 (Homo sapiens, UniProt O60674). Put plainly: JAK2 Inhibition Assay. The class given is biochemical. The following applies: JAK-2 enzyme, 15 μM poly(Glu)4Tyr, 12 μM ATP. As for the experimental part: (§1) Compounds were screened for their ability to inhibit JAK3 using the assay shown below. Reactions were carried out in a kinase buffer containing 100 mM HEPES (pH 7.4), 1 mM DTT, 10 mM MgCl2, 25 mM NaCl, and 0.01% BSA. Substrate concentrations in the assay were 5 μM ATP (200 uCi/μmole ATP) and 1 μM poly(Glu)4Tyr. Reactions were carried out 25° C. and 1 nM JAK3.
(§2) To each well of a 96 well polycarbonate plate was added 1.5 μl of a candidate JAK3 inhibitor along with 50 μl of kinase buffer containing 2 μM poly(Glu)4Tyr and 10 μM ATP. This was then mixed and 50 μl of kinase buffer containing 2 nM JAK3 enzyme was added to start the reaction. After 20 minutes at room temperature (25° C.), the reaction was stopped with 50 μl of 20% trichloroacetic acid (TCA) that also contained 0.4 mM ATP. The entire contents of each well were then transferred to a 96 well glass fiber filter plate using a TomTek Cell Harvester. After washing, 60 μl of scintillation fluid was added and ^33P incorporation detected on a Perkin Elmer TopCount.
The assays were as described above in Example 36 except that JAK-2 enzyme was used, the final poly(Glu)4Tyr concentration was 15 μM, and final ATP concentration was 12 μM.

The next test concerns the target T1, JAK3 (Homo sapiens, UniProt P52333).
T1 sequence (P52333 1-1124): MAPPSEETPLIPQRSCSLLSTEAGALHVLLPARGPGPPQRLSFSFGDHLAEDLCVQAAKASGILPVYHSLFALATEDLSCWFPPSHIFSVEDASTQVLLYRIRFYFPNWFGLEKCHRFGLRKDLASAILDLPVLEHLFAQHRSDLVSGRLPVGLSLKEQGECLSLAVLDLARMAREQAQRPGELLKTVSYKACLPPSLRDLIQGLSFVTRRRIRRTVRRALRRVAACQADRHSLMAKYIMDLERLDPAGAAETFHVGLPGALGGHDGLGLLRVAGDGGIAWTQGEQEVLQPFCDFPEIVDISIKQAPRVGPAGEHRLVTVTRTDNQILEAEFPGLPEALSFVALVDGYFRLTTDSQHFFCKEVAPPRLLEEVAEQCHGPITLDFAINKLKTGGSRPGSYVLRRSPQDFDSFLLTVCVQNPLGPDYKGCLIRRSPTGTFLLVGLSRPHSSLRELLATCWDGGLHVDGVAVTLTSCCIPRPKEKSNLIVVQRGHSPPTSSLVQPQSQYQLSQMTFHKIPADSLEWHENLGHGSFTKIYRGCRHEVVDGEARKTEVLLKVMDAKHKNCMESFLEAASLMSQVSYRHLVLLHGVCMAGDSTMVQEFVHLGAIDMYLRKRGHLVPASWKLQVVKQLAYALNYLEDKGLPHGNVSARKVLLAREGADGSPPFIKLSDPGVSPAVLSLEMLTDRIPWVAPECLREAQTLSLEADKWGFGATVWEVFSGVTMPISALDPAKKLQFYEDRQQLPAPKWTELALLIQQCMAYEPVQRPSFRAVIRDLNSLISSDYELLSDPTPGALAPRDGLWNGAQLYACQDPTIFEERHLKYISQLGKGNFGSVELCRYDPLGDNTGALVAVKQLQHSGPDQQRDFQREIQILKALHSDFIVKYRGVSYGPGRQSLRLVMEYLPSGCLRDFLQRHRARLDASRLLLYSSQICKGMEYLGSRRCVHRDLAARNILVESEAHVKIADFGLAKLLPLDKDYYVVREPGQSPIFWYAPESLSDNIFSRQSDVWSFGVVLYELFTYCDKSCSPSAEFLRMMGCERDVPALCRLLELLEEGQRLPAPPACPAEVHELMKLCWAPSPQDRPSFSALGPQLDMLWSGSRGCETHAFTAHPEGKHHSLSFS
Put plainly: JAK3 Inhibition Assay. The class given is biochemical. The conditions noted are these: 1 nM JAK3, 1 μM poly(Glu)4Tyr, 5 μM ATP, 25° C.; read-out: enzyme inhibition data (Ki) JAK3. As for the experimental part: as §1, §2

Sequence of JAK2 (O60674 whole entry): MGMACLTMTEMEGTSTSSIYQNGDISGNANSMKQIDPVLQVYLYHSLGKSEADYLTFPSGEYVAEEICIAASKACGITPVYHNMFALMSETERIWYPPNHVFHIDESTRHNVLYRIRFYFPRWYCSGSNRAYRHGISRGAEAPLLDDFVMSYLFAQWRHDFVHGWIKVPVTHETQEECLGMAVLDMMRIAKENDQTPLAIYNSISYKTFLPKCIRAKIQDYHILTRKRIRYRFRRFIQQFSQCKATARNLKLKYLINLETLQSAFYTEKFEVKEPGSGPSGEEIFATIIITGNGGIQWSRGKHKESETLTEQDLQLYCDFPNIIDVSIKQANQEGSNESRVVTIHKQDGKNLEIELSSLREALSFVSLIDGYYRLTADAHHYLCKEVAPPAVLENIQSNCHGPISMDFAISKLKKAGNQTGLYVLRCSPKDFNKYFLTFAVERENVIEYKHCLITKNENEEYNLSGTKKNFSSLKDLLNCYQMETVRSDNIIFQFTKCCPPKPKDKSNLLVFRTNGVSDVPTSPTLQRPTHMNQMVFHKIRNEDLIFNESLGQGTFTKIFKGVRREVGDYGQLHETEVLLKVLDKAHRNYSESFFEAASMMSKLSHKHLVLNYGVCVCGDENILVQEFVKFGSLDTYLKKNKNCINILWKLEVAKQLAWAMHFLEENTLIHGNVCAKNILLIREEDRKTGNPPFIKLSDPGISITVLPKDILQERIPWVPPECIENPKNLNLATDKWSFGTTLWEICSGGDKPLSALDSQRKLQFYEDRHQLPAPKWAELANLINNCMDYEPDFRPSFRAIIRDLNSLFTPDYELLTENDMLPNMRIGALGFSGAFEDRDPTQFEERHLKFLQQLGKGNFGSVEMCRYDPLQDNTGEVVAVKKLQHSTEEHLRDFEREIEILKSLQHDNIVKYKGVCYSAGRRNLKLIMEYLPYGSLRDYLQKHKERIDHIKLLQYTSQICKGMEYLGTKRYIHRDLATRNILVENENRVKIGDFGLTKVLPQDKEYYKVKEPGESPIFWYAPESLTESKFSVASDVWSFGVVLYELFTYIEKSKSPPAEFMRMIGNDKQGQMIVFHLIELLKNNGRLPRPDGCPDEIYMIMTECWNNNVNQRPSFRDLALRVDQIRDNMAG

Turning to `C[C@H](Nc1cc(-c2ccccc2)nc(-c2c[nH]c3ncncc23)n1)C(=O)NCC(F)(F)F` [Compound 18, (S)-2-(6-phenyl-2-(7H-pyrrolo[2,3-d]pyrimidin-5-yl)pyrimidin-4-ylamino)-N-(2,2,2-trifluoroethyl)propanamide], the Ki is 500 to 5000 nM on JAK2 and less than 500 nM at JAK3.

`C[C@H](Nc1cc(C#N)cc(-c2c[nH]c3ncncc23)n1)C(=O)NCC(F)(F)F` [Compound 19, (S)-2-(4-cyano-6-(7H-pyrrolo[2,3-d]pyrimidin-5-yl)pyridin-2-ylamino)-N-(2,2,2-trifluoroethyl)propanamide]: the results for the Ki at JAK2 and at JAK3 were 500 to 5000 nM and less than 500 nM, respectively.

Consider `C[C@H](Nc1cc(-c2nnn[nH]2)cc(-c2c[nH]c3ncncc23)n1)C(=O)NCC(F)(F)F` [Compound 20, (S)-2-(6-(7H-pyrrolo[2,3-d]pyrimidin-5-yl)-4-(1H-tetrazol-5-yl)pyridin-2-ylamino)-N-(2,2,2-trifluoroethyl)propanamide], for which the Ki on JAK2 was 500 to 5000 nM; on JAK3, less than 500 nM.

As for `OC[C@@H]1CCCN1c1nc(-c2c[nH]c3ncncc23)ncc1F` [Compound 21, ((S)-1-(5-fluoro-2-(7H-pyrrolo[2,3-d]pyrimidin-5-yl)pyrimidin-4-yl)pyrrolidin-2-yl)methanol], the Ki at JAK2 and on JAK3 was 500 to 5000 nM in each case.

As to `OC[C@H]1CCCN1c1nc(-c2c[nH]c3ncncc23)ncc1F` [Compound 22, ((R)-1-(5-fluoro-2-(7H-pyrrolo[2,3-d]pyrimidin-5-yl)pyrimidin-4-yl)pyrrolidin-2-yl)methanol], the Ki at JAK2 and at JAK3 was 500 to 5000 nM each time.

Turning to `COC[C@@H]1CCCN1c1nc(-c2c[nH]c3ncncc23)ncc1F` [Compound 23, 5-(5-fluoro-4-((S)-2-(methoxymethyl)pyrrolidin-1-yl)pyrimidin-2-yl)-7H-pyrrolo[2,3-d]pyrimidine], the Ki at JAK2 and at JAK3 was 500 to 5000 nM throughout.

As for `Fc1cnc(-c2c[nH]c3ncncc23)nc1N1CCCC1` [Compound 24, 5-(5-fluoro-4-(pyrrolidin-1-yl)pyrimidin-2-yl)-7H-pyrrolo[2,3-d]pyrimidine], the Ki on JAK2 and on JAK3 was 500 to 5000 nM throughout.

Regarding `COC[C@H]1CCCN1c1nc(-c2c[nH]c3ncncc23)ncc1F` [Compound 25, 5-(5-fluoro-4-((R)-2-(methoxymethyl)pyrrolidin-1-yl)pyrimidin-2-yl)-7H-pyrrolo[2,3-d]pyrimidine], the Ki at JAK2 and on JAK3 was 500 to 5000 nM each time.

With `O=C(NCC(F)(F)F)[C@@H]1CCCN1c1nc(-c2c[nH]c3ncncc23)ncc1F` [Compound 26], the Ki on JAK2 is greater than 5000 nM; on JAK3, 500 to 5000 nM.

Take `O=C(NCC(F)(F)F)[C@H]1CCCN1c1nc(-c2c[nH]c3ncncc23)ncc1F` [Compound 27]: the Ki at JAK2 and on JAK3 was less than 500 nM each time.

Consider `CC(C)(C)OC(=O)N1CC=C(c2cccc(-c3c[nH]c4ncncc34)n2)CC1` [Compound 28, 6-(7H-Pyrrolo[2,3-d]pyrimidin-5-yl)-3′,6′-dihydro-2′H-[2,4′]bipyridinyl-1′-carboxylic acid tert-butyl ester], for which the Ki on JAK2 and on JAK3 was 500 to 5000 nM in each case.

As to `C1=C(c2cccc(-c3c[nH]c4ncncc34)n2)CCNC1` [Compound 29, 6-(7H-Pyrrolo[2,3-d]pyrimidin-5-yl)-1′,2′,3′,6′-tetrahydro-[2,4′]bipyridinyl hydrochloride], the Ki at JAK2 and at JAK3 was 500 to 5000 nM throughout.

On to `N#CCC(=O)N1CC=C(c2cccc(-c3c[nH]c4ncncc34)n2)CC1` [Compound 30, 3-(4-(6-(7H-pyrrolo[2,3-d]pyrimidin-5-yl)pyridin-2-yl)-5,6-dihydropyridin-1(2H)-yl)-3-oxopropanenitrile], for which the Ki on JAK2 and at JAK3 was less than 500 nM in each case.

For `C[C@H](Nc1nc(-c2c[nH]c3ncncc23)cc(N2CCCC2)n1)C(=O)NCC(F)(F)F` [Compound 31, (S)-2-(4-(pyrrolidin-1-yl)-6-(7H-pyrrolo[2,3-d]pyrimidin-5-yl)pyrimidin-2-ylamino)-N-(2,2,2-trifluoroethyl)propanamide], the Ki at JAK2 is greater than 5000 nM; at JAK3, 500 to 5000 nM.

Regarding `C[C@H](Nc1cc(N2CCCC2)nc(-c2c[nH]c3ncncc23)n1)C(=O)NCC(F)(F)F` [Compound 32, (S)-2-(6-(pyrrolidin-1-yl)-2-(7H-pyrrolo[2,3-d]pyrimidin-5-yl)pyrimidin-4-ylamino)-N-(2,2,2-trifluoroethyl)propanamide], the Ki on JAK2 and at JAK3 was greater than 5000 nM throughout.

Consider `C[C@H](Nc1nc(-c2c[nH]c3ncncc23)nc(N2CCCC2)n1)C(=O)NCC(F)(F)F` [Compound 33, (S)-2-(4-(pyrrolidin-1-yl)-6-(7H-pyrrolo[2,3-d]pyrimidin-5-yl)-1,3,5-triazin-2-ylamino)-N-(2,2,2-trifluoroethyl)propanamide], for which the Ki at JAK2 and at JAK3 was greater than 5000 nM in each case.

Take `C[C@H](Nc1nc(-c2c[nH]c3ncncc23)nc2ccccc12)C(=O)NCC(F)(F)F` [Compound 34]: the Ki on JAK2 is 500 to 5000 nM; at JAK3 it was less than 500 nM.

In the case of `C[C@H](Nc1nc(-c2c[nH]c3ncncc23)cc(N2CCOCC2)n1)C(=O)NCC(F)(F)F` [Compound 35], the inhibitory constant (Ki) on JAK2 is greater than 5000 nM; on JAK3, 500 to 5000 nM.

With `C[C@H](Nc1cc(N2CCOCC2)nc(-c2c[nH]c3ncncc23)n1)C(=O)NCC(F)(F)F` [Compound 36, (S)-2-(6-morpholino-2-(7H-pyrrolo[2,3-d]pyrimidin-5-yl)pyrimidin-4-ylamino)-N-(2,2,2-trifluoroethyl)propanamide], the Ki on JAK2 and on JAK3 was greater than 5000 nM throughout.

For `C[C@H](Nc1nc(-c2c[nH]c3ncncc23)nc(N2CCOCC2)n1)C(=O)NCC(F)(F)F` [Compound 37, (S)-2-(4-morpholino-6-(7H-pyrrolo[2,3-d]pyrimidin-5-yl)-1,3,5-triazin-2-ylamino)-N-(2,2,2-trifluoroethyl)propanamide], the Ki on JAK2 and on JAK3 was greater than 5000 nM throughout.

`C[C@@H](Nc1nc(-c2c[nH]c3ncncc23)nc2ccccc12)C(=O)NCC(F)(F)F` [Compound 38]: the Ki on JAK2 and on JAK3 was less than 500 nM each time.

Consider `C[C@@H](Nc1ccnc(-c2c[nH]c3ncncc23)n1)C(=O)NCC(F)(F)F` [Compound 39, (R)-2-(2-(7H-pyrrolo[2,3-d]pyrimidin-5-yl)pyrimidin-4-ylamino)-N-(2,2,2-trifluoroethyl)propanamide], for which the Ki at JAK2 and on JAK3 was less than 500 nM each time.

Consider `C[C@@H](Nc1nc(-c2c[nH]c3ncncc23)ncc1F)C(=O)NCC(F)(F)F` [Compound 40, (R)-2-(5-fluoro-2-(7H-pyrrolo[2,3-d]pyrimidin-5-yl)pyrimidin-4-ylamino)-N-(2,2,2-trifluoroethyl)propanamide], for which the Ki at JAK2 and at JAK3 was less than 500 nM throughout.

In the case of `CC[C@H](Nc1nc(-c2c[nH]c3ncncc23)ncc1F)C(=O)NCC(F)(F)F` [Compound 41, (S)-2-(5-fluoro-2-(7H-pyrrolo[2,3-d]pyrimidin-5-yl)pyrimidin-4-ylamino)-N-(2,2,2-trifluoroethyl)butanamide], the inhibitory constant (Ki) on JAK2 was 500 to 5000 nM; on JAK3, less than 500 nM.

These data come from patent US8580802B2, “Pyrrolo[2,3-D]pyrimidines as inhibitors of Janus kinases” (Vertex Pharmaceuticals Incorporated, priority 2005, dated 2013).
